Data set [1] has as its target T1, 5-hydroxytryptamine receptor 1A (Homo sapiens) (UniProt P08908).
T1 sequence (whole entry): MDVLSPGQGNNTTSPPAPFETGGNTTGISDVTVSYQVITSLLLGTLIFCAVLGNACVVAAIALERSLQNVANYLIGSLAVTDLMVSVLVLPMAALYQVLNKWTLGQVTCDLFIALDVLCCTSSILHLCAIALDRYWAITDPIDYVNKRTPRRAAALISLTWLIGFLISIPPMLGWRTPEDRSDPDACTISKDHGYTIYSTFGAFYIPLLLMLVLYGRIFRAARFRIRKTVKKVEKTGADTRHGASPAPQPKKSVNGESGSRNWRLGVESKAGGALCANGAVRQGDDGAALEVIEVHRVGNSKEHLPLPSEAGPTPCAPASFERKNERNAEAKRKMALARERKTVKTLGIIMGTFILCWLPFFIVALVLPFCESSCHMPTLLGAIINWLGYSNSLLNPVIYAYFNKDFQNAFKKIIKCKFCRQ
The conditions noted are these: Compound concentration 10.0 uM.

For data set [2], the species on record is Rattus norvegicus. The note with it: Compound concentration 10.0 uM.
The target in data set [3] is Endothelin-1 receptor (Homo sapiens) (UniProt P25101). The conditions noted are these: Compound concentration 10.0 uM.
Endothelin-1 receptor (Homo sapiens), sequence (P25101 whole entry): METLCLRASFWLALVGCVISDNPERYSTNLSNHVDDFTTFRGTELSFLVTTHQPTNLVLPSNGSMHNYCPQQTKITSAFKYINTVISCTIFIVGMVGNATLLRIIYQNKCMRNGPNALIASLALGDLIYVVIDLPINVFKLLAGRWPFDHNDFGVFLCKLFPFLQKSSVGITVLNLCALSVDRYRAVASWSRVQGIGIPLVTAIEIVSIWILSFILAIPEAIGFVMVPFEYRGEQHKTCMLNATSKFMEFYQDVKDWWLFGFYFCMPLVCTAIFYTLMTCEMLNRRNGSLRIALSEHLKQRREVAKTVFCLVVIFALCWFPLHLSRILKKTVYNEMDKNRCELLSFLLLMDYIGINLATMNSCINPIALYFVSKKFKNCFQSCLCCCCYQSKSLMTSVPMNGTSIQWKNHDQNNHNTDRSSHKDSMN
Data set [4] is filed under the species Homo sapiens. Nature of the data set: Inhibition of Nicotinic Acetylcholine at compound concentration of 10.0 uM in the Eurofins-Panlabs radioligand binding assay (Eurofins_assay_258590). The note with it: Compound concentration 10.0 uM. It is filed as protein-complex assay.
In data set [5] the target is Histamine H1 receptor (Homo sapiens) (UniProt P35367). The conditions noted are these: Compound concentration 10.0 uM.
For data set [6], the target named is Cannabinoid receptor 1 (Homo sapiens) (UniProt P21554). The conditions noted are these: Compound concentration 10.0 uM.
The target of data set [7] is Neuropeptide Y receptor type 2 (Homo sapiens) (UniProt P49146). Briefly: Inhibition of Neuropeptide Y Y2 at 10 µM in the Eurofins-Panlabs radioligand binding assay (Eurofins_assay_257110). The note with it: Compound concentration 10.0 uM.
Neuropeptide Y receptor type 2 (Homo sapiens), sequence (P49146 whole entry): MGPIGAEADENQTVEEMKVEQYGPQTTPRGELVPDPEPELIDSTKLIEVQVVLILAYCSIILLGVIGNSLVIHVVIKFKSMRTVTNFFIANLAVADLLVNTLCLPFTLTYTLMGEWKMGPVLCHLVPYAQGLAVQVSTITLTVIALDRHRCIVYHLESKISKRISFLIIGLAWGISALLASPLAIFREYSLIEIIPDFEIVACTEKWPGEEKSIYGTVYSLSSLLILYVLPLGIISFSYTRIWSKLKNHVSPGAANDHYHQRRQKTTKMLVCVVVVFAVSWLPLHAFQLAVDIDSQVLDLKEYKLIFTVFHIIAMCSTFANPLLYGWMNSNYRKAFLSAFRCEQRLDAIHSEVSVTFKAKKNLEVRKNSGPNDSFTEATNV
The target of data set [8] is T2, Alpha-1D adrenergic receptor (Homo sapiens) (UniProt P25100).
T2 sequence (whole entry): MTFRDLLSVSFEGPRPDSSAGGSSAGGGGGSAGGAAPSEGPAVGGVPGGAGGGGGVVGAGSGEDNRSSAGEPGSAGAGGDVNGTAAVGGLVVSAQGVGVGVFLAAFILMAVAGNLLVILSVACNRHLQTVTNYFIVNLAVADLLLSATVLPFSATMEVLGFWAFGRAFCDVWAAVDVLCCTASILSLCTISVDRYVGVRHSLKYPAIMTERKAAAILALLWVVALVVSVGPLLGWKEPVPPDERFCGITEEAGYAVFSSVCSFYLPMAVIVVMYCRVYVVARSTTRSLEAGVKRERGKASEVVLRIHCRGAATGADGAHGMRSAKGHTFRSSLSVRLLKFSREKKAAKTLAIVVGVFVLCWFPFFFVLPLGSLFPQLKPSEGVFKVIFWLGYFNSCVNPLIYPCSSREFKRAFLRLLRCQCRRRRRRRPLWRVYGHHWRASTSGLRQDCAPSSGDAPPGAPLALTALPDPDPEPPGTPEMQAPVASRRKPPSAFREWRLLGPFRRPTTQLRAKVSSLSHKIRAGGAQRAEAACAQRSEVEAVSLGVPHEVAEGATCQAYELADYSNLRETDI
Briefly: Inhibition of Adrenergic alpha1D at 10 µM in the Eurofins-Panlabs radioligand binding assay (Eurofins_assay_203400). The note with it: Compound concentration 10.0 uM.

Data set [9] has as its target Sodium-dependent dopamine transporter (Homo sapiens) (UniProt Q01959). The note with it: Compound concentration 10.0 uM.
The target of data set [10] is Sigma non-opioid intracellular receptor 1 (Homo sapiens) (UniProt Q99720). Nature of the data set: Inhibition of Sigma 1 at 10 µM in the Eurofins-Panlabs radioligand binding assay (Eurofins_assay_278110). Also noted: ligand concentration 8 nM. The conditions noted are these: Compound concentration 10.0 uM.
Data set [11] has as its target Cysteinyl leukotriene receptor 1 (Homo sapiens) (UniProt Q9Y271). Briefly: Inhibition of Leukotriene, Cysteinyl CysLT1 at 10 µM in the Eurofins-Panlabs radioligand binding assay (Eurofins_assay_250460). Also noted: ligand concentration 0.3 nM, non-specific ligand with concentration 0.3 µM Leukotriene D4, incubation time 30 min, incubation temperature 25 °C. The conditions noted are these: Compound concentration 10.0 uM.

Data set [12] deals with Mu-type opioid receptor (Homo sapiens) (UniProt P35372). The conditions noted are these: Compound concentration 10.0 uM.
Mu-type opioid receptor (Homo sapiens), sequence (P35372 whole entry): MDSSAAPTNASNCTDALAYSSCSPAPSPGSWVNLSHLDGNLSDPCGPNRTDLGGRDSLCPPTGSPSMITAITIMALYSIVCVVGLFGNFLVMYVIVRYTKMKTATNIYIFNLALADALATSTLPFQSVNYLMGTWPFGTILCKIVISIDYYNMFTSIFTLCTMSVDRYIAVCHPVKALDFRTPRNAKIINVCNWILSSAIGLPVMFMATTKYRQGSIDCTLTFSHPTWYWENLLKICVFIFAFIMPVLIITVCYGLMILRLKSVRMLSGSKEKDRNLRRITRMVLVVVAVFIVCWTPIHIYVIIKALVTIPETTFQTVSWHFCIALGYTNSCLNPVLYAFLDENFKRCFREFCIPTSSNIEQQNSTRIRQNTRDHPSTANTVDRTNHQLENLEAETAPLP
In data set [13] the target is B1 bradykinin receptor (Homo sapiens) (UniProt P46663). Nature of the data set: Inhibition of Bradykinin B1 at 10 µM in the Eurofins-Panlabs radioligand binding assay (Eurofins_assay_212510). The note with it: Compound concentration 10.0 uM.
B1 bradykinin receptor (Homo sapiens), sequence (P46663 whole entry): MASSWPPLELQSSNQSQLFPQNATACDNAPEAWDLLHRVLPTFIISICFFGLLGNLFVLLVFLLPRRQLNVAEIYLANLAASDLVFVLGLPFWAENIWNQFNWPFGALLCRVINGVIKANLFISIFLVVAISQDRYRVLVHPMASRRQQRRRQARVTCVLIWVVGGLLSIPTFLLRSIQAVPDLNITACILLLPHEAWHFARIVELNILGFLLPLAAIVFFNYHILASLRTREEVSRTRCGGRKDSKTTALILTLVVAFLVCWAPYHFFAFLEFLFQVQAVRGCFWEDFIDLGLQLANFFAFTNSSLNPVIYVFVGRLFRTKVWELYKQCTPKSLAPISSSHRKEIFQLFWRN
Data set [14] addresses Mu-type opioid receptor (Homo sapiens) (UniProt P35372). The note with it: Compound concentration 10.0 uM. This is another data set of the same source.
Data set [15] deals with Beta-2 adrenergic receptor (Homo sapiens) (UniProt P07550). The note with it: Compound concentration 10.0 uM.
Beta-2 adrenergic receptor (Homo sapiens), sequence (P07550 whole entry, looked up): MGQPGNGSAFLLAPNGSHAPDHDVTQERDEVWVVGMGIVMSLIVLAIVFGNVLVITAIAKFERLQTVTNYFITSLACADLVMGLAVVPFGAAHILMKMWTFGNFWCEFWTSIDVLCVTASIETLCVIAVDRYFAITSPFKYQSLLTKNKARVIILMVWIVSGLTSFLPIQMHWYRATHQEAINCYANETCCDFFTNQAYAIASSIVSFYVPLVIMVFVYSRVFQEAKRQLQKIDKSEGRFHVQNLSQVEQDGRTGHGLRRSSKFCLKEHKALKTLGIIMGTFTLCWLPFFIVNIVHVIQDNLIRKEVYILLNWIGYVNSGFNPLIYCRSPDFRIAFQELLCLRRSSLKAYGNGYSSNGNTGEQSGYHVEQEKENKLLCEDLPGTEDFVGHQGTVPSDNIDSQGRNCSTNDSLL
The species named for data set [16] is Mus musculus. Briefly: Inhibition of Phorbol Ester at 10 µM in the Eurofins-Panlabs radioligand binding assay (Eurofins_assay_264500). Also noted: ligand concentration 3 nM. The note with it: Compound concentration 10.0 uM.
Data set [17] is filed under the species Rattus norvegicus. Nature of the data set: Inhibition of Rolipram at 10 µM in the Eurofins-Panlabs radioligand binding assay (Eurofins_assay_268811). The note with it: Compound concentration 10.0 uM. It is filed as protein assay. Also noted: ligand concentration 1.8 nM.
Data set [18] deals with L-type calcium channel, benzothiazepine site (Cav1.2 alpha-1C) (Homo sapiens, UniProt Q13936). Briefly: Inhibition of Calcium Channel L-Type, Benzothiazepine at 10 µM in the Eurofins-Panlabs radioligand binding assay (Eurofins_assay_214510). Also noted: ligand concentration 2 nM, non-specific ligand with concentration 10 µM Diltiazem, incubation time 3h, incubation temperature 4 °C. The note with it: male, Wistar, rat, rat whole brain preparation, probe [3H] Diltiazem; compound concentration 10 uM; target entry is the homologue from another species.
L-type calcium channel, benzothiazepine site (Cav1.2 alpha-1C), sequence (Q13936 whole entry): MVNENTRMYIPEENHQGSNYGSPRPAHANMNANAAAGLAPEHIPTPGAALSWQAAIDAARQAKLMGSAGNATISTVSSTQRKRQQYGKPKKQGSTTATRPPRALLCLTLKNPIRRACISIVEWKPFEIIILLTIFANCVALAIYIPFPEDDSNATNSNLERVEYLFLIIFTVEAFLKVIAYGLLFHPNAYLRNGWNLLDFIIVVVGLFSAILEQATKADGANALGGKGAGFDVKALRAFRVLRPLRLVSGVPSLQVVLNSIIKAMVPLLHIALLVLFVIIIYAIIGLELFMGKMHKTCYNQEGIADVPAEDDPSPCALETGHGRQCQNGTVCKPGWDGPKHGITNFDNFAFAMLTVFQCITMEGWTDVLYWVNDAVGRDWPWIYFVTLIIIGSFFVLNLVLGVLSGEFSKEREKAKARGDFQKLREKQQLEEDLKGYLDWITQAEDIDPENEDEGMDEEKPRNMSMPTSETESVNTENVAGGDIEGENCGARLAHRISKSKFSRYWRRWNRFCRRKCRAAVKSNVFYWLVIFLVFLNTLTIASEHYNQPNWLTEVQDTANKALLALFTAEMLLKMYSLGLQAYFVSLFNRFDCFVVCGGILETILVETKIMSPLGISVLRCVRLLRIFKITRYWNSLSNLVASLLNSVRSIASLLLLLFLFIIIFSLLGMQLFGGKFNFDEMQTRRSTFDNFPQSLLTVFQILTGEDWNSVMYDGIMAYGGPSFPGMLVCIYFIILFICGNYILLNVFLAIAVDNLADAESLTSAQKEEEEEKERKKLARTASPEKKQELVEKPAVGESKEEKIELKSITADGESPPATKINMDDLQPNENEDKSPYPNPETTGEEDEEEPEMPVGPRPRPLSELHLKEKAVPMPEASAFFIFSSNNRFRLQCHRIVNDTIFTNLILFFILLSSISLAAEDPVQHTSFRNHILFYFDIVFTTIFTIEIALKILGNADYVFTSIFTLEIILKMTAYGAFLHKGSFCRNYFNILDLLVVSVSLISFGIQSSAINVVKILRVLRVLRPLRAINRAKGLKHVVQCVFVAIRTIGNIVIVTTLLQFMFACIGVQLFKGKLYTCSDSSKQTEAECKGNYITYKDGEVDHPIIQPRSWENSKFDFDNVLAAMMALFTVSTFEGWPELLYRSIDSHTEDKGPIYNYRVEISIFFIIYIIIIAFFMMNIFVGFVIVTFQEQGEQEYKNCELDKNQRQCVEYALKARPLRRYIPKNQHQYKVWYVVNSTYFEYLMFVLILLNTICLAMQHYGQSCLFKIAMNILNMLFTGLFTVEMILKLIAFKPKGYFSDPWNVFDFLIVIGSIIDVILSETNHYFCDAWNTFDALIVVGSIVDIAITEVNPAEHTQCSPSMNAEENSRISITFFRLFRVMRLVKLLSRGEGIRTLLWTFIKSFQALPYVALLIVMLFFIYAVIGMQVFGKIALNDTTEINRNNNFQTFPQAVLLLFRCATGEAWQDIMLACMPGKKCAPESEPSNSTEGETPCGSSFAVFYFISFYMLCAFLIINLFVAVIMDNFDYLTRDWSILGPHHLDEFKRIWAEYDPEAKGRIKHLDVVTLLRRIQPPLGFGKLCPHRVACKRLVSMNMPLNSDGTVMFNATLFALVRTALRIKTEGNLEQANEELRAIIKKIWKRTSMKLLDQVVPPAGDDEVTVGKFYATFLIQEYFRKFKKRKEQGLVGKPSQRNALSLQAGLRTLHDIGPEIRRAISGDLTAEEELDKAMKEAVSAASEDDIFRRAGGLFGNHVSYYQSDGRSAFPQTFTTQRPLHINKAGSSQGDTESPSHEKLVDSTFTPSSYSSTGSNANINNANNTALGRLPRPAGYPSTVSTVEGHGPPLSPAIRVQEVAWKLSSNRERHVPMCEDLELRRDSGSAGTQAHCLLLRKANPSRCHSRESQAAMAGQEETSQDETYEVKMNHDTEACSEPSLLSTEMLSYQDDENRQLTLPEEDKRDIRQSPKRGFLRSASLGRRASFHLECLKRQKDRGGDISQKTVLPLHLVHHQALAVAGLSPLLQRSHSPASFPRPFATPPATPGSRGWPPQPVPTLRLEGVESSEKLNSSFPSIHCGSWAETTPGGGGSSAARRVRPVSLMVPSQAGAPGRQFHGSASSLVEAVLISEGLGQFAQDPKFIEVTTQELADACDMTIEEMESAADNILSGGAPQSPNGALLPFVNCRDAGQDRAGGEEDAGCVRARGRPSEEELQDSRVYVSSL

Data set [19] deals with T3, D(4) dopamine receptor (Homo sapiens) (UniProt P21917).
T3 sequence (whole entry): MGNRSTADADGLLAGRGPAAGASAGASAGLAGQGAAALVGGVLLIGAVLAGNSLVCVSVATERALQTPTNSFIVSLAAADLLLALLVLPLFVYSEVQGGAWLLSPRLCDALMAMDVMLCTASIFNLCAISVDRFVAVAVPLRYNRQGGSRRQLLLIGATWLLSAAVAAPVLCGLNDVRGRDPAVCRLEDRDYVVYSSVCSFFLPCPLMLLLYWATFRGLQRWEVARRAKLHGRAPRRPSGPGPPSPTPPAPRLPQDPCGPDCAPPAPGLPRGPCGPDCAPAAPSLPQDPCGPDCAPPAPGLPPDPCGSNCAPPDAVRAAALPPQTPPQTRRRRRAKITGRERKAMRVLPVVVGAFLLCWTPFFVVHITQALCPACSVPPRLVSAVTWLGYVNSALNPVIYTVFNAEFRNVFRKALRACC
Nature of the data set: Inhibition of Dopamine D4.2 at 10 µM in the Eurofins-Panlabs radioligand binding assay (Eurofins_assay_219900). Also noted: ligand concentration 0.5 nM. The conditions noted are these: Compound concentration 10.0 uM.

Data set [20] addresses hERG (KCNH2) (Homo sapiens, UniProt Q12809). Briefly: Inhibition of Potassium Channel hERG at 10 µM in the Eurofins-Panlabs radioligand binding assay (Eurofins_assay_265900). Also noted: ligand concentration 1.5 nM, non-specific ligand with concentration Astemizole, incubation time 60 min, incubation temperature 25 °C. The note with it: HEK-293 cells expressing human recombinant hERG, probe [3H] Astemizole, compound concentration 10 uM.

Data set [21] addresses Histamine H3 receptor (Homo sapiens) (UniProt Q9Y5N1). The conditions noted are these: Compound concentration 10.0 uM.
Data set [22] addresses Melatonin receptor type 1A (Homo sapiens) (UniProt P48039). Briefly: Inhibition of Melatonin MT1 at 10 µM in the Eurofins-Panlabs radioligand binding assay (Eurofins_assay_251600). Also noted: ligand concentration 0.05 nM. The note with it: Compound concentration 10.0 uM.

The values that follow come from ChEMBL document CHEMBL4507264, “Data for DCP probe BAY-7598” (2021).

The inhibition is the change of the read-out against control, counted positive when it falls.

Cysteinyl leukotriene receptor 1 (Homo sapiens), sequence (Q9Y271 whole entry): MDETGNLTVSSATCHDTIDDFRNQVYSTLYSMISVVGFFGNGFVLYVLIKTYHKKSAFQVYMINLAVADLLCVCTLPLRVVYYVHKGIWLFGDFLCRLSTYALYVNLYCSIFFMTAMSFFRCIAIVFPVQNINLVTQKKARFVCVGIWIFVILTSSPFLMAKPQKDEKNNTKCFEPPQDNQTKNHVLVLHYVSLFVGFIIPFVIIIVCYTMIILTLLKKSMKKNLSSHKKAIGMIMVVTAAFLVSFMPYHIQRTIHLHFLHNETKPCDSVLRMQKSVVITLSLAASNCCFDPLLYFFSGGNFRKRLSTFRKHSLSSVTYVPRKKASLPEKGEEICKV
Histamine H3 receptor (Homo sapiens), sequence (Q9Y5N1 whole entry): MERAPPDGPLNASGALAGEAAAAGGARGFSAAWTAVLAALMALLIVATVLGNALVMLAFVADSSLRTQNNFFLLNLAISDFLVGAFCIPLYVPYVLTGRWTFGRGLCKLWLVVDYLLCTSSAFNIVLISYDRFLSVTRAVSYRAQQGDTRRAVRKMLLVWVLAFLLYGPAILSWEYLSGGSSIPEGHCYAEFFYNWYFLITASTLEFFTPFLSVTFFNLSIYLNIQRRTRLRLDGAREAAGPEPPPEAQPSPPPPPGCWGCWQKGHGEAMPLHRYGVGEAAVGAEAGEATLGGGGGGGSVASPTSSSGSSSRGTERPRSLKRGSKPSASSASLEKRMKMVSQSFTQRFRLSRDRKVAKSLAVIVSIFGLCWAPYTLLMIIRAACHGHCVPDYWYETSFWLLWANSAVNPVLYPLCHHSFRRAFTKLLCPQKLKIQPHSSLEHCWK

`O=C(O)[C@H]1[C@H](Cn2nnc3ccccc3c2=O)CC[C@@H]1C(=O)c1ccc(OCCC2CCOCC2)cc1` [BAY-7598]: the inhibition was -9% in data set [1]; 1% in [2]; 7% in [3]; -1% in [4]; 1% in [5]; 17% in [6]. Further, the inhibition is 3% in data set [7]; -9% in data set [8]; 0% in [9]; -7% in [10]; 8% in [11]; -9% in data set [12]. Besides, the inhibition in data set [13] is 6%; in data set [14], -9.72%; in data set [15], 4%; in [16], 4%; in data set [17], 10%; in data set [19], -2%. Moreover, the inhibition in data set [21] is -6%; in data set [22], 2%. For the same compound, the inhibition at 3 h, 10 µM in data set [18] is -9% (not active). For the same compound, in [20], the inhibition at 60 min, 10 µM was 7% (not active).
